From PubChem BioAssay AID248 (DTP/NCI, 2004)
Inconclusive results and toxic doses are left out. Cut-off read from the data, not from the text of the source: active = T/C of 150% or more; inactive = T/C below 125%.

System: L1210 leukemia ip in BDF1 mice, survival T/C
Assay: NCI In Vivo Anticancer Drug Screen. Data for tumor model L1210 Leukemia (intraperitoneal) in B6D2F1 (BDF1) mice
Conditions: endpoint: mean survival time, higher = longer survival
Method in brief: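 Antitumor effect is assessed in tumor-bearing animals. Survival in the compound arm is compared with a vehicle-dosed control arm and expressed as their quotient.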

[1] = dose: 100.0 mg/kg/injection, schedule: Q01DX009 (ip), vehicle: saline with Tween-80
[2] = dose: 200.0 mg/kg/injection, schedule: Q01DX009 (ip), vehicle: saline with Tween-80
[3] = dose: 400.0 mg/kg/injection, schedule: Q01DX009 (ip), vehicle: saline with Tween-80
[4] = dose: 100.0 mg/kg/injection, schedule: Q04DX002 (ip), vehicle: saline with Tween-80
[5] = dose: 200.0 mg/kg/injection, schedule: Q04DX002 (ip), vehicle: saline with Tween-80
[6] = dose: 400.0 mg/kg/injection, schedule: Q04DX002 (ip), vehicle: saline with Tween-80
[7] = dose: 100.0 mg/kg/injection, schedule: Q01DX009 (ip), vehicle: Klucel (hydroxypropylcellulose) (HPC)
[8] = dose: 100.0 mg/kg/injection, schedule: Q01DX001 (ip), vehicle: saline
[9] = dose: 200.0 mg/kg/injection, schedule: Q01DX001 (ip), vehicle: saline
[10] = dose: 400.0 mg/kg/injection, schedule: Q01DX001 (ip), vehicle: saline
[11] = dose: 75.0 mg/kg/injection, schedule: Q01DX001 (ip), vehicle: saline
[12] = dose: 50.0 mg/kg/injection, schedule: Q01DX001 (ip), vehicle: carboxymethylcellulose (CMC)
[13] = dose: 100.0 mg/kg/injection, schedule: Q01DX001 (ip), vehicle: carboxymethylcellulose (CMC)
[14] = dose: 200.0 mg/kg/injection, schedule: Q01DX001 (ip), vehicle: carboxymethylcellulose (CMC)
[15] = dose: 400.0 mg/kg/injection, schedule: Q01DX001 (ip), vehicle: carboxymethylcellulose (CMC)
[16] = dose: 100.0 mg/kg/injection, schedule: Q04DX003 (ip), vehicle: saline with Tween-80
[17] = dose: 200.0 mg/kg/injection, schedule: Q04DX003 (ip), vehicle: saline with Tween-80
[18] = dose: 400.0 mg/kg/injection, schedule: Q04DX003 (ip), vehicle: saline with Tween-80
[19] = dose: 100.0 mg/kg/injection, schedule: Q04DX003 (ip), vehicle: Klucel (hydroxypropylcellulose) (HPC)
[20] = dose: 400.0 mg/kg/injection, schedule: Q04DX003 (ip), vehicle: Klucel (hydroxypropylcellulose) (HPC)
[21] = dose: 100.0 mg/kg/injection, schedule: Q04DX003 (ip), vehicle: saline
[22] = dose: 200.0 mg/kg/injection, schedule: Q04DX003 (ip), vehicle: saline
[23] = dose: 400.0 mg/kg/injection, schedule: Q04DX003 (ip), vehicle: saline

Measured: T/C

CCOC(=O)/C=C(/C)Nc1ccc(SC)cc1
inactive: [1] 100 % of control | [2] 96 % of control | [3] 100 % of control

N#CCCN(Cc1cccnc1)CN1C(=O)c2ccccc2C1=O
inactive: [4] 91 % of control | [5] 97 % of control | [6] 102 % of control

Clc1ccc(SSC(Cl)(Cl)Cl)cc1
inactive: dose: 25.0 mg/kg/injection, schedule: Q01DX009 (ip), vehicle: Klucel (hydroxypropylcellulose) (HPC) 98 % of control | dose: 50.0 mg/kg/injection, schedule: Q01DX009 (ip), vehicle: Klucel (hydroxypropylcellulose) (HPC) 88 % of control | [7] 93 % of control

CSc1ccc(C(CNC(C)=O)C(C#N)C#N)cc1 (stereo unspecified)
inactive: [8] 101 % of control | [9] 103 % of control | [10] 89 % of control

CO[C@]12[C@@H](COC(=O)NCCO)C3=C(C(=O)C(C)=C(N)C3=O)N1C[C@@H]1[C@H]2N1C (stereo partly specified)
inactive: [11] 112 % of control

CC(=O)O/C=C\c1ccccc1
inactive: [12] 104 % of control | [13] 98 % of control | [14] 107 % of control | [15] 98 % of control

CC1(C)CC(N)CC(C)(C)N1
inactive: [12] 107 % of control | [13] 103 % of control

C=Cc1ccccn1
inactive: [11] 98 % of control | dose: 150.0 mg/kg/injection, schedule: Q01DX001 (ip), vehicle: saline 102 % of control | dose: 300.0 mg/kg/injection, schedule: Q01DX001 (ip), vehicle: saline 97 % of control

O=C(O)C1CC1Oc1ccccc1 (stereo unspecified)
inactive: [1] 96 % of control | [16] 110 % of control | [2] 92 % of control | [17] 108 % of control | [3] 87 % of control | [18] 106 % of control

CCCCCCNC(=O)Nc1ccc(Cl)c(Cl)c1
inactive: [8] 98 % of control | [9] 101 % of control | [10] 95 % of control

Cc1nc(N)[nH]c(=O)c1N
inactive: dose: 75.0 mg/kg/injection, schedule: Q01DX001 (ip), vehicle: saline with Tween-80 106 % of control | [19] 100 % of control | dose: 150.0 mg/kg/injection, schedule: Q01DX001 (ip), vehicle: saline with Tween-80 101 % of control | dose: 200.0 mg/kg/injection, schedule: Q04DX003 (ip), vehicle: Klucel (hydroxypropylcellulose) (HPC) 96 % of control | dose: 300.0 mg/kg/injection, schedule: Q01DX001 (ip), vehicle: saline with Tween-80 103 % of control | [20] 92 % of control

CCOC(=O)C(=O)c1c(C)[nH]c(C(=O)OCC)c1C
inactive: dose: 25.0 mg/kg/injection, schedule: Q04DX003 (ip), vehicle: saline 104 % of control | dose: 50.0 mg/kg/injection, schedule: Q04DX003 (ip), vehicle: saline 93 % of control | dose: 100.0 mg/kg/injection, schedule: Q01DX001 (ip), vehicle: Klucel (hydroxypropylcellulose) (HPC) 95 % of control | [21] 98 % of control | dose: 200.0 mg/kg/injection, schedule: Q01DX001 (ip), vehicle: Klucel (hydroxypropylcellulose) (HPC) 97 % of control | dose: 400.0 mg/kg/injection, schedule: Q01DX001 (ip), vehicle: Klucel (hydroxypropylcellulose) (HPC) 101 % of control

NC(=O)C(O)C(O)C(O)C(O)CCl (stereo unspecified)
inactive: dose: 50.0 mg/kg/injection, schedule: Q04DX002 (ip), vehicle: saline with Tween-80 96 % of control | [4] 93 % of control | [5] 98 % of control | [6] 96 % of control

O=C(c1ccccc1)N1CC2CC3OC3c3cccc1c32 (stereo unspecified)
inactive: [16] 88 % of control | [17] 92 % of control

O=C1c2ccccc2C(F)(F)c2ccccc21
inactive: [7] 110 % of control | dose: 200.0 mg/kg/injection, schedule: Q01DX009 (ip), vehicle: Klucel (hydroxypropylcellulose) (HPC) 100 % of control | dose: 400.0 mg/kg/injection, schedule: Q01DX009 (ip), vehicle: Klucel (hydroxypropylcellulose) (HPC) 101 % of control

CCOP(=O)(OCC)Oc1ccccc1
inactive: [21] 91 % of control | [22] 92 % of control | [23] 94 % of control

Cc1cnc(C#N)c(Cl)n1
inactive: [1] 95 % of control | [16] 92 % of control | [2] 101 % of control | [17] 98 % of control | [3] 88 % of control | [18] 97 % of control

CC1C(c2ccccc2)N1P(I)(c1ccccc1)(c1ccccc1)c1ccccc1 (stereo unspecified)
inactive: dose: 15.0 mg/kg/injection, schedule: Q01DX001 (ip), vehicle: carboxymethylcellulose (CMC) 116 % of control

O=C(Nc1ccc2c(c1)OCO2)N1CC1
inactive: dose: 10.0 mg/kg/injection, schedule: Q01DX009 (ip), vehicle: Klucel (hydroxypropylcellulose) (HPC) 102 % of control | dose: 20.0 mg/kg/injection, schedule: Q01DX009 (ip), vehicle: Klucel (hydroxypropylcellulose) (HPC) 92 % of control | dose: 20.0 mg/kg/injection, schedule: Q04DX003 (ip), vehicle: Klucel (hydroxypropylcellulose) (HPC) 103 % of control | dose: 40.0 mg/kg/injection, schedule: Q04DX003 (ip), vehicle: Klucel (hydroxypropylcellulose) (HPC) 113 % of control

CCN(CC)CCCC(C)Nc1nccc(/C=C/c2ccc(Cl)cc2)n1 (stereo unspecified)
inactive: [8] 96 % of control | [19] 90 % of control | [9] 105 % of control | [10] 100 % of control | [20] 94 % of control

CC1(CCCOc2ccc(NC(=O)CBr)cc2)N=C(N)N=C(N)N1c1ccccc1 (stereo unspecified)
inactive: dose: 5.0 mg/kg/injection, schedule: Q01DX001 (ip), vehicle: saline 97 % of control | dose: 10.0 mg/kg/injection, schedule: Q01DX001 (ip), vehicle: saline 92 % of control | dose: 20.0 mg/kg/injection, schedule: Q01DX001 (ip), vehicle: saline 91 % of control | dose: 40.0 mg/kg/injection, schedule: Q01DX001 (ip), vehicle: saline 91 % of control | dose: 80.0 mg/kg/injection, schedule: Q01DX001 (ip), vehicle: saline 87 % of control

Cc1cc(C)c(NC(N)=S)cc1C
inactive: dose: 100.0 mg/kg/injection, schedule: Q04DX002 (ip), vehicle: Klucel (hydroxypropylcellulose) (HPC) 92 % of control | dose: 200.0 mg/kg/injection, schedule: Q04DX002 (ip), vehicle: Klucel (hydroxypropylcellulose) (HPC) 94 % of control

C(#[C][Sb]([C]#Cc1ccccc1)[C]#Cc1ccccc1)c1ccccc1
inactive: [21] 98 % of control | [22] 106 % of control | [23] 102 % of control

CC1=CP(=O)(Oc2ccc([N+](=O)[O-])cc2)CC1 (stereo unspecified)
inactive: [11] 102 % of control

CCC(C)CC=O (stereo unspecified)
inactive: [12] 95 % of control | [13] 98 % of control | [14] 93 % of control | [15] 101 % of control
